Laboratory results from ChEMBL document CHEMBL4017504, “Blockade of Asparagine Endopeptidase Inhibits Cancer Metastasis” (J Med Chem, 2017).
Values belong to the compound of their own block, whether it stands above or below them. Calls of active or inactive are those of the source. No cut-off for these calls is given here.

Columns and labels:
[1] = molecular target: T1, Legumain (Homo sapiens) (UniProt Q99538); test: Inhibition of AEP (unknown origin) assessed as residual activity at 1 uM using Cbz-Ala-Ala-Asn-AMC as substrate after 15 mins by fluorescence assay relative to control
T1 sequence (whole entry): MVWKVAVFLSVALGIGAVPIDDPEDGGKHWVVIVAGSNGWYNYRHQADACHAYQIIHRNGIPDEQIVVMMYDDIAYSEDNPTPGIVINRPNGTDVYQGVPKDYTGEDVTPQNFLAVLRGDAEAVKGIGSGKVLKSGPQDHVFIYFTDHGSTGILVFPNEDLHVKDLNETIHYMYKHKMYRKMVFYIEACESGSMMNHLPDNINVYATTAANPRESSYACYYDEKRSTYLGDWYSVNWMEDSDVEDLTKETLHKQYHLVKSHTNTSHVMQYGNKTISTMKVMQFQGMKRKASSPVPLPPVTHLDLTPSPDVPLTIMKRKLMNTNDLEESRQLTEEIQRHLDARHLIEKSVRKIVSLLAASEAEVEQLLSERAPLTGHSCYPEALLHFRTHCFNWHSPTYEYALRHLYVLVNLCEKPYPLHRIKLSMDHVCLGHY

[2] = Inhibition of cathepsin-L (unknown origin); parameters: species or system Homo sapiens
[3] = molecular target: Cathepsin S (Homo sapiens, UniProt P25774); test: Inhibition of cathepsin-S (unknown origin)
Chain of Cathepsin S (P25774 whole entry): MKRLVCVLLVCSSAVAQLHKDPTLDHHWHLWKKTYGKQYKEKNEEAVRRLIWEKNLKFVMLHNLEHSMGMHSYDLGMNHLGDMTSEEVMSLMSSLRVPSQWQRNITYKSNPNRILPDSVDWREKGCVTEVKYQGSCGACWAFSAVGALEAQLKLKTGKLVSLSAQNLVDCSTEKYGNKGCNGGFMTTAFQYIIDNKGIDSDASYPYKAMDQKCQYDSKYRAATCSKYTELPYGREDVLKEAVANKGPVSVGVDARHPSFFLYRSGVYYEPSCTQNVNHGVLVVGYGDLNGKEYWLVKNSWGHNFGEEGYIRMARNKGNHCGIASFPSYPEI

[4] = molecular target: T2, Caspase-3 (Homo sapiens, UniProt P42574); test: Inhibition of caspase-3 (unknown origin)
T2 sequence (P42574 whole entry): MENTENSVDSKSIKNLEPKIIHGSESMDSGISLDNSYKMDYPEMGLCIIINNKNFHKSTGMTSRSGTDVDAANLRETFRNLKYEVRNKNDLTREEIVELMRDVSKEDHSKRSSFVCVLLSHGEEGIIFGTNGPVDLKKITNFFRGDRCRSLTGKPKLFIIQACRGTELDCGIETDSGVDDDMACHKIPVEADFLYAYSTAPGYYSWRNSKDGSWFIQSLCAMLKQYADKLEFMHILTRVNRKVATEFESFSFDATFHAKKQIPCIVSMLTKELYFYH

[5] = molecular target: Caspase-8 (Homo sapiens, UniProt Q14790); test: Inhibition of caspase-8 (unknown origin)
Chain of Caspase-8 (Q14790 217-374 limits assumed): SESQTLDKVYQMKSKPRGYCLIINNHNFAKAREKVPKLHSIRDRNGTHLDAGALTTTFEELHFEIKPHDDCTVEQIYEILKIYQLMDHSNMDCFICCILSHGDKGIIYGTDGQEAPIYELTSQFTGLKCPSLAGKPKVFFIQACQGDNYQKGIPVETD
Chain of Caspase-8 (Q14790 385-479 limits assumed): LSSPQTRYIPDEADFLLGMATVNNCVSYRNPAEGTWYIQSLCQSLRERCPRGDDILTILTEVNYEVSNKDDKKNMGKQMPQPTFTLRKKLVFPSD

[6] = test system: MDA-MB-231; test: Cytotoxicity against human MDA-MB-231 cells assessed as reduction in cell viability up to 2 uM by MTT assay; format: cell-based
[7] = test system: MDA-MB-435; test: Cytotoxicity against human MDA-MB-435 cells assessed as reduction in cell viability up to 2 uM by MTT assay; format: cell-based
[8] = test system: MDA-MB-231; test: Anti-invasive activity against human MDA-MB-231 cells by crystal violet staining based microscopic method; format: functional, cell-based
[9] = test system: MDA-MB-435; test: Anti-invasive activity against human MDA-MB-435 cells by crystal violet staining based microscopic method; format: functional, cell-based
[10] = test system: MDA-MB-231; test: Anti-invasive activity against human MDA-MB-231 cells at 2 uM by crystal violet staining based microscopic method relative to control; format: functional
[11] = test system: MDA-MB-435; test: Anti-invasive activity against human MDA-MB-435 cells at 2 uM by crystal violet staining based microscopic method relative to control; format: functional
[12] = test system: MDA-MB-231; test: Anti-migratory activity against human MDA-MB-231 cells up to 2 uM by transwell assay relative to control; format: functional
[13] = test system: MDA-MB-435; test: Anti-migratory activity against human MDA-MB-435 cells up to 2 uM by transwell assay relative to control; format: functional
[14] = test system: MDA-MB-435; test: Anti-invasive activity against human MDA-MB-435 cells harboring AEP siRNA up to 2 uM by crystal violet staining based microscopic method; format: functional, cell-based
[15] = test system: MDA-MB-231; test: Anti-invasive activity against human MDA-MB-231 cells harboring AEP siRNA up to 2 uM by crystal violet staining based microscopic method; format: functional, cell-based
[16] = test system: MDA-MB-231; test: Antitumor activity against human MDA-MB-231 cells xenografted in nude mouse assessed as metastatic nodules on lungs at 3 mg/kg, po via gavage for 42 consecutive days by hematoxylin and eosin staining based microscopic method relative to control; format: functional
[17] = test system: MDA-MB-231; test: Antitumor activity against human MDA-MB-231 cells xenografted in nude mouse assessed as metastatic nodules on lungs at 10 mg/kg, po via gavage for 42 consecutive days by hematoxylin and eosin staining based microscopic method relative to control; format: functional
[18] = test system: MDA-MB-231; test: Antitumor activity against human MDA-MB-231 cells xenografted in nude mouse assessed as reduction in mammary tumor weight at 3 to 10 mg/kg, po via gavage for 42 consecutive days; format: functional, organism-based
[19] = test system: Mus musculus; test: Toxicity in nude mouse xenografted with human MDA-MB-231 cells assessed as abnormality in kidney at 3 to 10 mg/kg, po via gavage for 42 consecutive days by hematoxylin and eosin staining based microscopic method; format: organism-based; details: in vivo
[20] = test system: Mus musculus; test: Toxicity in nude mouse xenografted with human MDA-MB-231 cells assessed as body weight loss at 3 to 10 mg/kg, po via gavage for 42 consecutive days; format: organism-based; details: in vivo
[21] = test system: Mus musculus; test: Toxicity in nude mouse xenografted with human MDA-MB-231 cells assessed as abnormality in bone marrow at 3 to 10 mg/kg, po via gavage for 42 consecutive days by hematoxylin and eosin staining based microscopic method; format: organism-based; details: in vivo
[22] = test system: Mus musculus; test: Toxicity in nude mouse xenografted with human MDA-MB-231 cells assessed as abnormality in liver at 3 to 10 mg/kg, po via gavage for 42 consecutive days by hematoxylin and eosin staining based microscopic method; format: organism-based; details: in vivo
[23] = test system: Mus musculus; test: Toxicity in nude mouse xenografted with human MDA-MB-231 cells assessed as effect on blood count at 3 to 10 mg/kg, po via gavage for 42 consecutive days by hematoxylin and eosin staining based microscopic method; format: organism-based; details: in vivo
[24] = test system: Mus musculus; test: Toxicity in nude mouse xenografted with human MDA-MB-231 cells assessed as increase in spleen size at 3 to 10 mg/kg, po via gavage for 42 consecutive days; format: organism-based; details: in vivo
[25] = test system: MDA-MB-231; test: Cytotoxicity against human MDA-MB-231 cells assessed as reduction in cell viability up to 10 uM by MTT assay; format: cell-based
[26] = test system: MDA-MB-231; test: Inhibition of MMP2 cleavage in human MDA-MB-231 cells harboring AEP siRNA up to 10 uM by gelatin zymography assay; format: functional, cell-based
[27] = test system: Mus musculus; test: Reduction in ratio of cleaved MMP2 to full-length MMP2 in mammary tumor of nude mouse xenografted with human MDA-MB-231 cells at 3 to 10 mg/kg, po via gavage for 42 consecutive days by gelatin zymography assay; format: functional, organism-based
[28] = molecular target: T3, Legumain (Homo sapiens, UniProt Q99538); test: Inhibition of AEP (unknown origin) using Cbz-Ala-Ala-Asn-AMC as substrate after 15 mins by fluorescence assay
T3 sequence (Q99538 whole entry): T1 sequence (whole entry)

[29] = species: Homo sapiens; test: Selectivity ratio of IC50 for cathepsin-L (unknown origin) to IC50 for AEP (unknown origin)
[30] = molecular target: T4, Legumain (Mus musculus) (UniProt O89017); test: Inhibition of AEP in mouse kidney by HTS assay
T4 sequence (whole entry): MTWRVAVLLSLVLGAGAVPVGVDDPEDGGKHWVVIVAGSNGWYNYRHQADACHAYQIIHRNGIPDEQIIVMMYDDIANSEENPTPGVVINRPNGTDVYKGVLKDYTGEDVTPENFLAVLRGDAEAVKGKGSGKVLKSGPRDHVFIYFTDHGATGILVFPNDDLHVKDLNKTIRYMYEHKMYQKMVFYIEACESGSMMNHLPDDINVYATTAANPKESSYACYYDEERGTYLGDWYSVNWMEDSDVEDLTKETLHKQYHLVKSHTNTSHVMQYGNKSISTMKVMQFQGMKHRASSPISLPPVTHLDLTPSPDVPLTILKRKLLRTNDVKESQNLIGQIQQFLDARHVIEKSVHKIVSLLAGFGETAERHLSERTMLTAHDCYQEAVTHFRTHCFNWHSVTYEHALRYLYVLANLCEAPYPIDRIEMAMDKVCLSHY

[31] = molecular target: T3, Legumain; test: Competitive inhibition of AEP (unknown origin) using varying levels of Z-AAN-AMC substrate after 10 mins by Lineweaver-Burk plot analysis
[32] = Apparent permeability across apical to basolateral side in human Caco2 cells after 2 hrs by LC-MS/MS method; format: ADME, cell-based; details: caco-2, 2 h
[33] = Apparent permeability across basolateral to apical side in human Caco2 cells after 2 hrs by LC-MS/MS method; format: ADME, cell-based; details: caco-2, 2 h

- Activity [1]: 11.5%
Compound: Cn1c(S)nc2c1c(=O)[nH]c(=O)n2C

- Activity [1]: 18.1%
Compound: C=CCn1c(S)nc2c1c(=O)n(C)c(=O)n2C

- Activity [1]: 85.4%
Compound: Cn1c(=O)[nH]c(=O)c2c1nc(S)n2C[C@H](O)CO

- Activity [1]: 13.8%
Compound: CCn1c(S)nc2c1c(=O)[nH]c(=O)n2C

- Activity [1]: 15.7%
Compound: CC(C)Cn1c(S)nc2c1c(=O)[nH]c(=O)n2C

- Activity [1]: 91.9%
Compound: Cc1ncc2c(=O)[nH]c(=O)n(C)c2n1

- Activity [1]: 18.5%
Compound: COc1ccc(OC[C@@H](O)Cn2c(S)nc3c2c(=O)[nH]c(=O)n3C)cc1

- IC50 [2]: 162 µM
- IC50 [3]: > 200 µM
- IC50 [4]: > 200 µM
- IC50 [5]: > 200 µM
Compound: CCn1c(=O)c2c(nc(S)n2C)n(C)c1=O
- Activity [6]: Non-Toxic
- Activity [7]: Non-Toxic
- Activity [8]: Dose-dependent effect
- Activity [9]: Dose-dependent effect
- inhibition at 2 µM [10]: 75%
- inhibition at 2 µM [11]: 75%
- inhibition (INH) [12]: 25%
- inhibition (INH) [13]: 40%
- Activity [14]: inactive
- Activity [15]: inactive
- Activity [16]: 33%
- Activity [17]: 17%
- Activity [18]: Active
- Activity [19]: Non-Toxic
- Activity [20]: Non-Toxic
- Activity [21]: Non-Toxic
- Activity [22]: Non-Toxic
- Activity [23]: Non-Toxic
- Activity [24]: Toxic
- Activity [25]: Non-Toxic
- inhibition [26]: inactive
- Activity [27]: Active

- Activity [1]: 69.4%
Compound: CC(=O)Cn1c(S)nc2c1c(=O)[nH]c(=O)n2C

- Activity [1]: 17.2%
Compound: Cn1c(=O)n(Cc2ccccc2)c(=O)c2c1nc(S)n2Cc1ccccc1

- Activity [1]: 16.1%
- IC50 [2]: 80.5 µM
- IC50 [28]: 0.18 µM
- IC50 [3]: > 200 µM
- IC50 [4]: 185 µM
- IC50 [5]: > 200 µM
- Ratio IC50 [29]: 500
Compound: Cn1c(=O)c2c(nc(S)n2C)n(C)c1=O

- Activity [1]: 17.2%
Compound: Cc1ccc(Cn2c(S)nc3c2c(=O)n(C)c(=O)n3C)cc1

- Activity [1]: 98.9%
Compound: Cn1c(=O)c2c(nc(S(=O)(=O)c3ccccc3)n2C)n(C)c1=O

- Activity [1]: 70.5%
Compound: CSc1nc2c(c(=O)n(C)c(=O)n2C)n1C

- inhibition [30]: Active
- Ki [31]: 0.105 µM
- Papp [32]: 1.1 ×10⁻⁶ cm/s
- Papp [33]: 20.3 ×10⁻⁶ cm/s
- IC50 [2]: > 200 µM
- IC50 [3]: > 200 µM
Compound: Cn1c(=O)[nH]c(=O)c2c1nc(S)n2CC(O)COc1ccc(Cl)cc1 (stereo unspecified)

- Activity [1]: 98.3%
Compound: Cn1c(=O)c2c(nc(S(C)(=O)=O)n2C)n(C)c1=O

- Activity [1]: 13.8%
Compound: COCCn1c(S)nc2c1c(=O)[nH]c(=O)n2C

- Activity [1]: 74.3%
Compound: Cn1c(=O)c2c(ncn2C)n(C)c1=O

- IC50 [2]: > 200 µM
- IC50 [3]: > 200 µM
- IC50 [4]: > 200 µM
- IC50 [5]: > 200 µM
Compound: Cn1c(S)nc2c1c(=O)n(Cc1ccccc1)c(=O)n2C

- Activity [1]: 12.3%
Compound: Cc1ccc(Cn2c(S)nc3c2c(=O)[nH]c(=O)n3C)cc1

- Activity [1]: 14.8%
Compound: CCCCn1c(S)nc2c1c(=O)[nH]c(=O)n2C

- Activity [1]: 15.9%
Compound: CCn1c(S)nc2c1c(=O)n(C)c(=O)n2C

- Activity [1]: 14.1%
Compound: CC[C@H](C)n1c(S)nc2c1c(=O)[nH]c(=O)n2C

- Activity [1]: 17.8%
Compound: CC(C)n1c(S)nc2c1c(=O)n(C)c(=O)n2C

- Activity [1]: 14.9%
Compound: CCCn1c(S)nc2c1c(=O)[nH]c(=O)n2C

- Activity [1]: 34.6%
Compound: Cn1c(=O)[nH]c(=O)c2c1nc(S)n2C[C@H](O)COc1ccccc1

- Activity [1]: 100%
Compound: Cn1ccnc1Sc1nc2c(c(=O)n(C)c(=O)n2C)n1C
